# Assay results: article PMC5734728, “The JAK2/STAT3 inhibitor pacritinib effectively inhibits patient-derived GBM brain tumor initiating cells in vitro and when used in combination with temozolomide increases survival in an orthotopic xenograft model” (PLoS ONE, 2017)
# Assays:
# BT124 = experiment: alamarBlue BTIC viability assay, BT124; format: cell-based; conditions: Homo sapiens; BTIC line BT124, alamarBlue
# [1] = test system: patient-derived GBM BTIC cultures; experiment: alamarBlue viability assay, panel of BTIC cultures
# Protocol: (§1) Accumax (eBioscience) was used to enzymatically dissociate BTIC spheres to single cells. Cells were seeded at 1000 cells per well in 96-well plates and treated with vehicle (DMSO) or drug, 24 hours after plating. BTIC viability was assessed after 7–14 days, once spheres were formed in control wells, by performing the alamarBlue™ (Invitrogen) assay per the manufacturer’s instructions. In brief, the alamar dye was added to each well and plates were read 6 hours later. Fluorescence intensity (excitation 540 nm; emission 590 nm) was measured on a SpectraMax M Series Multi-Mode Microplate reader. […] All experiments were performed in triplicate with a minimum of 3 wells per condition.
# (§2) BTICs were treated with suboptimal doses of 1 μM pacritinib (CTI Biopharma), 10 μg/mL TMZ (Sigma), or a combination of pacritinib and TMZ. […] Percent inhibition was determined by normalizing each well to the control well (0.1% DMSO).
# BT69 = experiment: alamarBlue BTIC viability assay, BT69; format: cell-based; conditions: Homo sapiens; BTIC line BT69, alamarBlue
# BT189 = experiment: alamarBlue BTIC viability assay, BT189; format: cell-based; conditions: Homo sapiens; BTIC line BT189, alamarBlue
# [2] = human, in vivo, cited from earlier work
# BT68 = experiment: alamarBlue BTIC viability assay, BT68; format: cell-based; conditions: Homo sapiens; BTIC line BT68, alamarBlue
# BT143 = experiment: alamarBlue BTIC viability assay, BT143; format: cell-based; conditions: Homo sapiens; BTIC line BT143, alamarBlue
# BT67 = experiment: alamarBlue BTIC viability assay, BT67; format: cell-based; conditions: Homo sapiens; BTIC line BT67, alamarBlue
# [3] = test system: patient-derived GBM BTIC cultures; experiment: neurosphere assay, all BTIC cultures tested; format: cell-based, human; conditions: 5 μM
# [4] = test system: BT53 orthotopic xenograft; experiment: Kaplan-Meier survival, orthotopic BT53 xenograft; format: in vivo, mice; conditions: BT53 xenografted mice, 100 mg/kg pacritinib, three weeks; p < 0.7237 log-rank
# Protocol: For Kaplan-Meier survival studies, BTIC spheres from BT53 or BT147 were dissociated to a single-cell suspension. Mice were anaesthetized using 10 mg/kg ketamine/xylazine. Buprenorphine (0.05 mg/kg) was administered once pre-operatively and once post-operatively to minimize animal suffering. 5 x 10^4 cells were stereotactically implanted into the right striata of 8- to 10-week-old female severe combined immunodeficient (SCID) mice, as previously described and approved by the University of Calgary Health Sciences Animal Care Committee, accredited by CCAC. Mice were randomized to vehicle or treatment cohorts, with a minimum of 8 mice per group, one week after cell implantation. For BT147, vehicle (Ora-Plus; Galenova), pacritinib (100 mg/kg), TMZ (30 mg/kg), or a combination of pacritinib (100 mg/kg) and TMZ (30 mg/kg), were administered via oral gavage. Animals completed a five-week regimen of three weekly treatments for a total of 15 treatments. For BT53, 100 mg/kg of pacritinib was administered twice per day alone or in combination with 50 mg/kg TMZ once per day, for one week via oral gavage. Following this, mice received 100 mg/kg pacritinib twice per day in combination with 10 mg/kg TMZ once per day for two weeks. […] The body weights were closely monitored throughout the course of the experiment. […]
# BT147 = experiment: neurosphere assay, BT147; format: cell-based, human; conditions: 3 μM
# in vitro = in vitro ADME, mouse; conditions: mouse liver microsomes, 30-minute incubation; for % Remaining: 1 μM
# Protocol: Working stocks were initially diluted to a concentration of 40 μM in 0.1 M potassium phosphate buffer before addition to the reaction vials. Pooled mouse (CD-1, male) or human (50 donors) liver microsomes were utilized at a final concentration of 0.5 mg/mL. Duplicate wells were used for each time point (0 and 30 minutes). Reactions were carried out at 37°C in a shaker, and the final concentration of DMSO was kept constant at 0.01%. The final volume for each reaction was 100 μL, which included the addition of an NADPH-Regeneration solution (NRS) mix. The NRS mix was comprised of glucose 6-phosphate dehydrogenase (0.4 U/mL), NADP+ (1.3 mM), MgCl2 (3.3 mM), and glucose 6-phosphate (3.3 mM) in assay mixtures. Upon completion of the 30-minute time point, reactions were terminated by the addition of 1.5-volumes (150 μL) of ice-cold acetonitrile with 0.5% formic acid and internal standard. Samples were then centrifuged at 4,000 rpm for 10 minutes to remove debris and precipitated protein. Approximately 150 μL of supernatant was subsequently transferred to a new 96-well microplate for LC-MS analysis. Narrow-window mass extraction LC-MS analysis was performed for all samples using a Waters Xevo quadrupole time-of-flight (QToF) mass spectrometer and an ACQUITY UPLC system, to determine relative peak areas of parent compound.
# BT12 = experiment: alamarBlue BTIC viability assay, BT12; conditions: Homo sapiens, BT-12, read-out: IC50 (viability)
# Protocol: as §1, §2
# BT50 = experiment: alamarBlue BTIC viability assay, BT50; format: cell-based; conditions: Homo sapiens; BTIC line BT50, alamarBlue
smiles,measurement,setting,value
C1=C/COCc2cc(ccc2OCCN2CCCC2)Nc2nccc(n2)-c2cccc(c2)COC/1 [pacritinib],IC50,BT124,1330 nM
same,IC50,"[1]; Homo sapiens, read-out: IC50 values for the eleven BTIC cultures tested",620 to 1660 nM
same,viability reduced,"[1]; at 1.5 μM, in 10/11 BTIC cultures tested",50%
same,IC50,BT69,1260 nM
same,IC50,BT189,1010 nM
same,Cmax,[2]; 100 mg,7.8 µM
same,mean maximum concentration (Cmax),[2]; 100 mg,3699 ng/mL
same,median time to maximum concentration (Tmax),[2],5 h
same,IC50,BT68,1220 nM
same,IC50,BT143,1360 nM
same,IC50,BT67,1080 nM
same,sphere formation,[3],completely inhibit sphere formation
same,"survival advantage, single agent",[4],failed to provide a survival advantage
same,sphere formation,BT147,completely abolished sphere formation
same,stability rating,in vitro,Unstable
same,% Remaining,in vitro,< 1%
same,% Remaining,in vitro; listed as Pacritinib (run 1),0.3%
same,% Remaining,in vitro; listed as Pacritinib (run 2),0.6%
same,IC50,BT12,1660 nM
same,IC50,BT50,620 nM
